Usually IC50 stands for the concentration that inhibits the measured activity by half. Broadly, the Ki is the dissociation constant of the complex between target and ligand, obtained from inhibition or displacement.

Data set [1] in a line: Therapeutic index, ratio of IC50 for African green monkey Vero cells to IC50 for Plasmodium falciparum TM4/8.2. Conditions: against Plasmodium falciparum TM4/8.2, read-out: Ratio IC50. Format: toxicity.
Data set [2] concerns DHFR (human against Plasmodium falciparum DHFR N51I/C59R/S108N/I164L mutant). The data set can be described thus: Selectivity index, ratio of Ki for human DHFR expressed in Escherichia coli BL21 to Ki for Plasmodium falciparum DHFR N51I/C59R/S108N/I164L mutant expressed in Escherichia coli BL21. It counts as toxicity. Conditions: read-out: Ratio Ki.
The subject of data set [3] is Plasmodium falciparum. The data set is described as follows: Antimalarial activity against Plasmodium falciparum CsI-2 harboring DHFR C59R/S108N/I164L mutant infected in human erythrocytes assessed as reduction in [3H]-hypoxanthine incorporation pretreated for 20 hrs followed by [3H]-hypoxanthine addition measured after 20 hrs by radioactivity method. The conditions noted are these: CsI-2, Erythrocyte. Format: functional, organism-based.

Data set [4] is described as follows: Inhibition of Plasmodium falciparum DHFR C59R/S108N/I164L mutant expressed in Escherichia coli BL21 using DHF as substrate by spectrophotometric analysis.
A short description of data set [5]: Inhibition of Plasmodium falciparum DHFR N51I/C59R/S108N mutant expressed in Escherichia coli BL21 using DHF as substrate by spectrophotometric analysis.
Data set [6] can be described thus: Inhibition of Plasmodium falciparum DHFR A16V/S108T mutant expressed in Escherichia coli BL21 using DHF as substrate by spectrophotometric analysis.
Data set [7] in a line: Inhibition of Plasmodium falciparum DHFR expressed in Escherichia coli BL21 using DHF as substrate by spectrophotometric analysis.
Data set [8] is described as follows: Therapeutic index, ratio of IC50 for African green monkey Vero cells to IC50 for Plasmodium falciparum K1CB1 harboring DHFR […] mutant. It counts as toxicity. The conditions noted are these: read-out: Ratio IC50.
A short description of data set [9]: Inhibition of Plasmodium falciparum DHFR N51I/C59R/S108N/I164L mutant expressed in Escherichia coli BL21 using DHF as substrate by spectrophotometric analysis.
The nature of data set [10]: Inhibition of Plasmodium falciparum DHFR […] mutant expressed in Escherichia coli BL21 using DHF as substrate by spectrophotometric analysis.
Data set [11] concerns Plasmodium falciparum. The data set is described as follows: Antimalarial activity against Plasmodium falciparum W2 harboring DHFR N51I/C59R/S108N mutant infected in human erythrocytes assessed as reduction in [3H]-hypoxanthine incorporation pretreated for 20 hrs followed by [3H]-hypoxanthine addition measured after 20 hrs by radioactivity method. It counts as functional, organism-based. The conditions noted are these: W2, Erythrocyte.

The test system of data set [12] is Plasmodium falciparum. The data set can be described thus: Antimalarial activity against Plasmodium falciparum V1/S harboring DHFR N51I/C59R/S108N/I164L mutant infected in human erythrocytes assessed as reduction in [3H]-hypoxanthine incorporation pretreated for 20 hrs followed by [3H]-hypoxanthine addition measured after 20 hrs by radioactivity method. The conditions noted are these: Erythrocyte. Format: functional, organism-based.

Data set [13] relates to DHFR (human against Plasmodium falciparum DHFR). The data set is described as follows: Selectivity index, ratio of Ki for human DHFR expressed in Escherichia coli BL21 to Ki for Plasmodium falciparum DHFR expressed in Escherichia coli BL21. Format: toxicity. Conditions: read-out: Ratio Ki.
Data set [14] concerns Plasmodium falciparum. The data set is described as follows: Antimalarial activity against Plasmodium falciparum T9/94 RC17 harboring DHFR A16V/S108T mutant infected in human erythrocytes assessed as reduction in [3H]-hypoxanthine incorporation pretreated for 20 hrs followed by [3H]-hypoxanthine addition measured after 20 hrs by radioactivity method. The conditions noted are these: T9/94 RC17, Erythrocyte. It counts as functional, organism-based.

Data set [15] in a line: Therapeutic index, ratio of IC50 for African green monkey Vero cells to IC50 for Plasmodium falciparum V1/S harboring DHFR N51I/C59R/S108N/I164L mutant. The conditions noted are these: read-out: Ratio IC50. Format: toxicity.
The subject of data set [16] is Plasmodium falciparum. The data set can be described thus: Antimalarial activity against Plasmodium falciparum K1CB1 harboring DHFR […] mutant infected in human erythrocytes assessed as reduction in [3H]-hypoxanthine incorporation pretreated for 20 hrs followed by [3H]-hypoxanthine addition measured after 20 hrs by radioactivity method. Format: functional, organism-based. Conditions: K1CB1, Erythrocyte.

The subject of data set [17] is Plasmodium falciparum. The data set is described as follows: Antimalarial activity against Plasmodium falciparum TM4/8.2 infected in human erythrocytes assessed as reduction in [3H]-hypoxanthine incorporation pretreated for 20 hrs followed by [3H]-hypoxanthine addition measured after 20 hrs by radioactivity method. It counts as functional, organism-based.
Another data set concerns Vero. The data set can be described thus: Cytotoxicity against African green monkey Vero cells assessed as reduction in cell viability incubated for 72 hrs by SRB assay. It counts as cell-based. The conditions noted are these: Chlorocebus sabaeus. (In general: In SRB staining, fixed cells bind dye roughly in proportion to their protein.)
Data set [18] deals with DHFR (human against Plasmodium falciparum DHFR double mutant). The data set is described as follows: Selectivity index, ratio of Ki for human DHFR expressed in Escherichia coli BL21 to Ki for Plasmodium falciparum DHFR double mutant expressed in Escherichia coli BL21. It counts as toxicity. Conditions: read-out: Ratio Ki.
Data set [19] can be described thus: Inhibition of Plasmodium falciparum DHFR using DHF as substrate by spectrophotometric analysis.

As for `CC1(C)N=C(N)N=C(N)N1OCCCOc1cccc(Cl)c1Cl`, the selectivity ratio in data set [1] stood at 27700; in data set [2] it was 21; in data set [8], 5110; in data set [13], 39; in data set [15], 1870; in [18] it was 24. For the same compound, the IC50 amounted to 3.9 nM in the data set with Plasmodium falciparum [3]; 0.82 nM in the data set on Plasmodium falciparum [11]; 5.2 nM in the data set with Plasmodium falciparum [12]; 0.21 nM in the data set on Plasmodium falciparum [14]; 1.9 nM in the data set on Plasmodium falciparum [16]; 0.35 nM in the data set with Plasmodium falciparum [17]. In addition, in the data set on Vero, the half-maximal inhibitory concentration (IC50) was found to be 9.71 µM. In addition, the inhibitory constant (Ki) in data set [4] was determined as 1.4 nM; in data set [5] it was 0.7 nM; in data set [6], 1.3 nM; in data set [7] it was 0.6 nM; in [9] it was 1.1 nM; in [10], 1 nM.

With `CC1(C)N=C(N)N=C(N)N1OCCCOc1cc(Cl)c(Cl)cc1Cl`, the selectivity ratio in data set [1] is > 1750; in [2] it was 8; in [8], > 435; in data set [13], 29; in data set [15], > 56; in data set [18] it was 24. Besides, the Ki in data set [19] was 0.5 nM; in [4], 0.4 nM; in data set [5], 1.1 nM; in data set [9], 1.9 nM; in [10], 0.6 nM. Further, the IC50 was 3.8 nM in the data set on Plasmodium falciparum [3]; 4.2 nM with Plasmodium falciparum [11]; 18 nM in the data set on Plasmodium falciparum [12]; 0.34 nM in the data set on Plasmodium falciparum [14]; 2.3 nM in the data set with Plasmodium falciparum [16]; 0.57 nM in the data set with Plasmodium falciparum [17]. In addition, in the data set on Vero, the 50% inhibitory concentration (IC50) was > 1 µM.

In the case of `CC1(C)N=C(N)N=C(N)N1OCCCCc1ccccc1`, the selectivity ratio in data set [1] is 821; in [2], 11; in data set [8], 874; in [13], 139; in [15] it was 46; in data set [18] it was 60. Also, the IC50 amounted to 46 nM with Plasmodium falciparum [3]; 44 nM with Plasmodium falciparum [11]; 590 nM in the data set on Plasmodium falciparum [12]; 3.7 nM with Plasmodium falciparum [14]; 31 nM in the data set on Plasmodium falciparum [16]; 33 nM in the data set on Plasmodium falciparum [17]. In addition, the concentration for half-maximal inhibition (IC50) in the data set with Vero came to 27.1 µM. For the same compound, the Ki in data set [4] was 2.2 nM; in data set [5], 0.7 nM; in data set [6], 2 nM; in data set [7] it was 0.3 nM; in [9], 3.7 nM; in data set [10], 0.7 nM.

On to `CC1N=C(N)N=C(N)N1OCCCOc1cc(Cl)c(Cl)cc1Cl` (stereo not drawn), for which the selectivity ratio amounted to 20000 in [1]; 40 in data set [2]; 2420 in [8]; 79 in [13]; 153 in data set [15]; 47 in [18]. Besides, the Ki was 0.3 nM in [19]; 0.5 nM in data set [4]; 0.4 nM in data set [5]; 0.6 nM in data set [9]; 0.5 nM in data set [10]. In addition, the IC50 with Plasmodium falciparum [3] came to 48 nM; in the data set on Plasmodium falciparum [11], 35 nM; in the data set on Plasmodium falciparum [12], 300 nM; in the data set with Plasmodium falciparum [14] it was 0.32 nM; in the data set with Plasmodium falciparum [16], 19 nM; in the data set on Plasmodium falciparum [17], 2.3 nM. Besides, the IC50 in the data set with Vero is 46 µM.

`CC1(C)N=C(N)N=C(N)N1OCCCOc1ccccc1`: the selectivity ratio in data set [1] came out at 90000; in data set [2] it was 19; in data set [8], 6170; in data set [13], 52; in data set [15], 628; in [18], 36. For the same compound, the IC50 in the data set on Plasmodium falciparum [3] came out at 32 nM; in the data set on Plasmodium falciparum [11], 5.9 nM; in the data set with Plasmodium falciparum [12], 53 nM; with Plasmodium falciparum [14], 0.59 nM; in the data set on Plasmodium falciparum [16], 5.4 nM; with Plasmodium falciparum [17] it was 0.37 nM. Moreover, the IC50 in the data set with Vero came out at 33.3 µM. The inhibitory constant (Ki) in data set [4] was 1.4 nM; in data set [5], 0.8 nM; in data set [6], 1.5 nM; in data set [7], 0.7 nM; in data set [9], 1.9 nM; in data set [10] it was 1 nM.

On to `CC1(C)N=C(N)N=C(N)N1OCCCNc1ccc(Cl)c(Cl)c1`, for which the selectivity ratio was > 11100 in data set [1]; 9 in data set [2]; > 11100 in data set [8]; 40 in data set [13]; > 68 in data set [15]; 61 in data set [18]. Also, the half-inhibitory concentration (IC50) in the data set with Plasmodium falciparum [3] turned out to be 390 nM; with Plasmodium falciparum [11], 58 nM; in the data set with Plasmodium falciparum [12], 740 nM; in the data set with Plasmodium falciparum [14], 17 nM; with Plasmodium falciparum [16] it was 45 nM; in the data set with Plasmodium falciparum [17], 4.5 nM. Moreover, the half-inhibitory concentration (IC50) with Vero is > 50 µM. For the same compound, the Ki turned out to be 1.4 nM in data set [4]; 0.9 nM in data set [5]; 3.7 nM in data set [6]; 1.2 nM in [7]; 5.1 nM in data set [9]; 0.8 nM in data set [10].

With `CC1(C)N=C(N)N=C(N)N1OCCCSc1ccc(Cl)cc1`, the selectivity ratio in data set [1] was 30200; in [2] it was 30; in data set [8], 2970; in data set [13], 40; in data set [15], 70; in data set [18] it was 26. In addition, the half-inhibitory concentration (IC50) with Plasmodium falciparum [3] was determined as 37 nM; with Plasmodium falciparum [11] it was 5.4 nM; in the data set on Plasmodium falciparum [12] it was 260 nM; in the data set with Plasmodium falciparum [14], 1.8 nM; with Plasmodium falciparum [16], 6.1 nM; in the data set with Plasmodium falciparum [17], 0.6 nM. Besides, the IC50 with Vero worked out at 18.1 µM. The Ki was 0.9 nM in data set [4]; 0.7 nM in data set [5]; 3.1 nM in [6]; 0.6 nM in data set [7]; 0.8 nM in [9]; 0.9 nM in [10].

Take `CC1(C)N=C(N)N=C(N)N1OCCCSc1ccccc1Cl`: the selectivity ratio in data set [1] came to 30400; in data set [2] it was 21; in data set [8], 4060; in [13], 35; in [15], 332; in [18], 19. For the same compound, the IC50 came to 4.4 nM in the data set with Plasmodium falciparum [3]; 3.3 nM in the data set on Plasmodium falciparum [11]; 44 nM with Plasmodium falciparum [12]; 0.73 nM in the data set on Plasmodium falciparum [14]; 3.6 nM in the data set on Plasmodium falciparum [16]; 0.48 nM in the data set with Plasmodium falciparum [17]. For the same compound, the IC50 in the data set with Vero stood at 14.6 µM. The Ki in data set [4] was 0.9 nM; in [5], 0.7 nM; in [6] it was 1.9 nM; in [7], 0.6 nM; in [9] it was 1 nM; in data set [10], 1.1 nM.

As to `CC1(C)NC(N)=NC(=N)N1OCCCSc1ccccc1`, the selectivity ratio is 123000 in data set [1]; 58 in data set [2]; 13300 in data set [8]; 58 in data set [13]; 997 in [15]; 36 in data set [18]. Also, the concentration for half-maximal inhibition (IC50) with Plasmodium falciparum [3] came to 39 nM; with Plasmodium falciparum [11] it was 9.9 nM; in the data set on Plasmodium falciparum [12], 64 nM; in the data set with Plasmodium falciparum [14] it was 0.58 nM; with Plasmodium falciparum [16], 4.8 nM; in the data set on Plasmodium falciparum [17], 0.52 nM. Moreover, the 50% inhibitory concentration (IC50) with Vero amounted to 63.8 µM. Besides, the inhibition constant (Ki) in [4] came out at 0.4 nM; in data set [5] it was 0.3 nM; in data set [6], 1 nM; in [7] it was 0.5 nM; in data set [10], 0.8 nM.

(Values after ChEMBL document CHEMBL4765292, “Flexible diaminodihydrotriazine inhibitors of Plasmodium falciparum dihydrofolate reductase: Binding strengths, modes of binding and their antimalarial activities” (Eur J Med Chem, 2020).)
